This is an account of results in patent US12357631B2 (priority 2018, dated 2025).

SMILES strings stand for the structures.

For the assay, the target named is PB2 (Influenza A virus, UniProt P03428). Briefly: biochemical. Type of assay: binding.
Sequence of PB2 (P03428 whole entry, looked up): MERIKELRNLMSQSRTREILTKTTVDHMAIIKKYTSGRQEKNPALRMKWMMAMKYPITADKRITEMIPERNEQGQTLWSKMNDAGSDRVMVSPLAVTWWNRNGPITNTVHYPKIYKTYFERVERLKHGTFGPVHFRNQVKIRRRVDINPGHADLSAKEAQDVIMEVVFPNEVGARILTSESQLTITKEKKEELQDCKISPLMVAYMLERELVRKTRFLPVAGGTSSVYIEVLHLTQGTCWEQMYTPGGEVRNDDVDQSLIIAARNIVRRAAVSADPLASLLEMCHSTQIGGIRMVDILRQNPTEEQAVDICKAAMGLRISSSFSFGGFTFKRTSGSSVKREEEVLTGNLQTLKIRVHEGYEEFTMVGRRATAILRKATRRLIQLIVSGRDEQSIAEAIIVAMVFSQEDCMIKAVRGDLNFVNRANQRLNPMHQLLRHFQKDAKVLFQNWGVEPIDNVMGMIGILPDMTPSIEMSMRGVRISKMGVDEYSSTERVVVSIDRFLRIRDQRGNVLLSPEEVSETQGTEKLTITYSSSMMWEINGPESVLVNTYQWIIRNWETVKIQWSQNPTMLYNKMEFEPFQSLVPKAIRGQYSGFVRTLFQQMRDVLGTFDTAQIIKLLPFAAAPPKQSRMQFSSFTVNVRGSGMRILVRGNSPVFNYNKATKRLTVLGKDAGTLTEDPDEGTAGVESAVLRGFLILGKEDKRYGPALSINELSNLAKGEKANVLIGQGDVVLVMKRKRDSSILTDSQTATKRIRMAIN
Usually EC50 stands for the concentration needed to bring the measured effect to its halfway point. A high value points to weaker potency. The molecule `O=C(O)COCCNC(=O)OCc1ccnc(C(=O)N[C@@H]2CCC[C@H](Nc3nc(-c4c[nH]c5ncc(F)cc45)ncc3F)C2)c1` [Compound A118] had an EC50 below 5 µM.
Next, `O=C(N[C@H]1CCC[C@@H](Nc2nc(-c3c[nH]c4ncc(F)cc34)ncc2F)C1)c1cc2ccccc2cn1` [Compound A46]: above 100 µM; `CCOCCOCCOCCNC(=O)N(CCc1ccccc1)[C@@H]1CCC[C@H](Nc2nc(-c3c[nH]c4ncc(F)cc34)ncc2F)C1` [Compound B2]: 50 to 100 µM; `CN(CCOCCOCCOCCO)C(=O)N[C@H]1CCC[C@@H](Nc2nc(-c3c[nH]c4ncc(F)cc34)ncc2F)C1` [Compound A191]: 25 to 50 µM.
Under `CCOCCOCCCCCN(CC(N)=O)C(=O)N[C@@H]1CCC[C@H](Nc2nc(-c3c[nH]c4ncc(F)cc34)ncc2F)C1` [Compound A210] stands 50 to 100 µM.
Next, `CCOCCCc1cccc(CCN(C)C(=O)N[C@H]2CCC[C@@H](Nc3nc(-c4c[nH]c5ncc(F)cc45)ncc3F)C2)c1` [Compound A220]: 50 to 100 µM; `CCOCCOCCCCCN(C(=O)N[C@H]1CCC[C@@H](Nc2nc(-c3c[nH]c4ncc(F)cc34)ncc2Cl)C1)C(C)C` [Compound A250]: above 100 µM; `CCOCCOCCOCCNC(=O)N[C@@H]1CCC[C@H](Nc2nc(-c3c[nH]c4ncc(F)cc34)ncc2F)C1` [Compound A168]: 5 to 25 µM.
With `O=C(NCCc1ccc(Oc2ccccc2)cc1)OCc1ccnc(C(=O)N[C@H]2CCC[C@@H](Nc3nc(-c4c[nH]c5ncc(F)cc45)ncc3F)C2)c1` [Compound A100], the EC50 was above 100 µM.
Under `O=C(NCc1ccc(F)cc1)OCc1ccnc(C(=O)N[C@@H]2CCC[C@H](Nc3nc(-c4c[nH]c5ncc(F)cc45)ncc3F)C2)c1` [Compound A92] stands above 100 µM; under `CCCCCCCCCCCN(C)C(=O)N[C@@H]1CCC[C@H](Nc2nc(-c3c[nH]c4ncc(F)cc34)ncc2F)C1` [Compound A175], 50 to 100 µM.
Under `O=C(NCc1ccc(C(=O)O)cc1)OCc1ccnc(C(=O)N[C@@H]2CCC[C@H](Nc3nc(-c4c[nH]c5ncc(F)cc45)ncc3F)C2)c1` [Compound A97] stands below 5 µM; under `CCCOCCCCCCCN(C)C(=O)N[C@@H]1CCC[C@H](Nc2nc(-c3c[nH]c4ncc(F)cc34)ncc2F)C1` [Compound A236], 50 to 100 µM.
Next, `CCCCCCCOCCCN(C)C(=O)N[C@H]1CCC[C@@H](Nc2nc(-c3c[nH]c4ncc(F)cc34)ncc2F)C1` [Compound A206]: above 100 µM; `O=C(N[C@@H]1CCC[C@H](Nc2nc(-c3c[nH]c4ncc(F)cc34)ncc2F)C1)c1cc(CCCOCCOCc2ccc(F)cc2)ccn1` [Compound A36]: above 100 µM; `O=C(N[C@H]1CCC[C@@H](Nc2nc(-c3c[nH]c4ncc(F)cc34)ncc2F)C1)c1cc(COCCCCCOCc2ccncc2)ccn1` [Compound A103]: above 100 µM.
`CCCCCOCCCCCN(C)C(=O)N[C@@H]1CCC[C@H](Nc2nc(-c3c[nH]c4ncc(F)cc34)ncc2F)C1` [Compound A201]: the concentration for a half-maximal effect (EC50) was above 100 µM.
Under `CCOCCOCCOCCNC(=O)N[C@@H]1CCC[C@H](Nc2nc(-c3c[nH]c4ncc(F)cc34)ncc2F)C1` [Compound A264] stands above 100 µM; under `CCOCCOCCCCCN(Cc1cncnc1)C(=O)N[C@H]1CCC[C@@H](Nc2nc(-c3c[nH]c4ncc(F)cc34)ncc2F)C1` [Compound A209], above 100 µM.
The molecule `CCOCCOCCc1cccc(N(C)C(=O)N[C@H]2CCC[C@@H](Nc3nc(-c4c[nH]c5ncc(F)cc45)ncc3F)C2)c1` [Compound A212] registered an EC50 above 100 µM.
Next, `O=COCCOCCNC(=O)OCc1ccnc(C(=O)N[C@H]2CCC[C@@H](Nc3nc(-c4c[nH]c5ncc(F)cc45)ncc3F)C2)c1` [Compound A115]: below 5 µM.
Next, `O=C(N[C@H]1CCC[C@@H](Nc2nc(-c3c[nH]c4ncc(F)cc34)ncc2F)C1)c1cccnc1` [Compound A37]: above 100 µM; `CCOCCOCCCC1CCN(C(=O)N[C@H]2CCC[C@@H](Nc3nc(-c4c[nH]c5ncc(F)cc45)ncc3F)C2)C1` (stereo partly drawn) [Compound A11]: 5 to 25 µM.
Next, `O=C(NCCc1ccc(F)cc1)OCc1ccnc(C(=O)N[C@H]2CCC[C@@H](Nc3nc(-c4c[nH]c5ncc(F)cc45)ncc3F)C2)c1` [Compound A101]: above 100 µM; `COCCOCCCCCCN(C)C(=O)N[C@H]1CCC[C@@H](Nc2nc(-c3c[nH]c4ncc(F)cc34)ncc2F)C1` [Compound A244]: above 100 µM; `CCOCCOCCCCCN(C)C(=O)N1CCC(C(=O)Nc2nc(-c3c[nH]c4ncc(F)cc34)ncc2F)C1` (stereo not drawn) [Compound C9]: above 100 µM.
As for `CCOCCOCCOCCNC(=O)N(CCCc1ccccc1)[C@@H]1CCC[C@H](Nc2nc(-c3c[nH]c4ncc(F)cc34)ncc2F)C1` [Compound B3], the EC50 was in the range of 50 to 100 µM.
Under `COc1ccc(CNC(=O)OCc2ccnc(C(=O)N[C@H]3CCC[C@@H](Nc4nc(-c5c[nH]c6ncc(F)cc56)ncc4F)C3)c2)cc1` [Compound A73] stands above 100 µM; under `O=C(O)CNCCNC(=O)OCc1ccnc(C(=O)N[C@@H]2CCC[C@H](Nc3nc(-c4c[nH]c5ncc(F)cc45)ncc3F)C2)c1` [Compound A110], 5 to 25 µM; under `CCOCCOCCCc1cncc(C(=O)N[C@H]2CCC[C@@H](Nc3nc(-c4c[nH]c5ncc(F)cc45)ncc3F)C2)c1` [Compound A23], above 100 µM.
Next, `CCOc1cccc(-c2ccnc(C(=O)N[C@H]3CCC[C@@H](Nc4nc(-c5c[nH]c6ncc(F)cc56)ncc4F)C3)c2)c1` [Compound A52]: above 100 µM; `O=C(N[C@@H]1CCC[C@H](Nc2nc(-c3c[nH]c4ncc(F)cc34)ncc2F)C1)c1cc(CCCOCCOCCO)ccn1` [Compound A59]: below 5 µM; `CCOCc1cccc(COCc2ccnc(C(=O)N[C@H]3CCC[C@@H](Nc4nc(-c5c[nH]c6ncc(F)cc56)ncc4F)C3)c2)c1` [Compound A71]: above 100 µM.
Under `O=C(N[C@H]1CCC[C@@H](Nc2nc(-c3c[nH]c4ncc(F)cc34)ncc2F)C1)c1cncc2ccccc12` [Compound A65] stands 25 to 50 µM; under `CCCCCOCCOCCN(C)C(=O)N[C@@H]1CCC[C@H](Nc2nc(-c3c[nH]c4ncc(F)cc34)ncc2F)C1` [Compound A177], above 100 µM.
Regarding `CCOCCOCCCCCN(C)C(=O)NC1CCC(Nc2nc(-c3c[nH]c4ncc(F)cc34)ncc2F)C1` (stereo not drawn) [Compound A217], the EC50 was above 100 µM.
Molecule `CCCCCCCCCCC(=O)N[C@@H]1CCC[C@H](Nc2nc(-c3c[nH]c4ncc(F)cc34)ncc2F)C1` [Compound A271] yielded an EC50 of 50 to 100 µM.
Next, `CCCCCOCCOCCNC(=O)N[C@@H]1CCC[C@H](Nc2nc(-c3c[nH]c4ncc(F)cc34)ncc2F)C1` [Compound A183]: 50 to 100 µM.
Under `CCOCCOCCOCCS(=O)(=O)N[C@@H]1CCC[C@H](Nc2nc(-c3c[nH]c4ncc(F)cc34)ncc2F)C1` [Compound A266] stands 5 to 25 µM; under `CCOCCOCCOCCNC(=O)N(Cc1ccccc1)[C@@H]1CCC[C@H](Nc2nc(-c3c[nH]c4ncc(F)cc34)ncc2F)C1` [Compound B1], above 100 µM.
Under `O=C(NCc1cccc(C(=O)O)c1)OCc1ccnc(C(=O)N[C@@H]2CCC[C@H](Nc3nc(-c4c[nH]c5ncc(F)cc45)ncc3F)C2)c1` [Compound A98] stands below 5 µM.
`C[C@@H](NC(=O)OCc1ccnc(C(=O)N[C@@H]2CCC[C@H](Nc3nc(-c4c[nH]c5ncc(F)cc45)ncc3F)C2)c1)C(=O)O` [Compound A141] yielded an EC50 below 5 µM.
Under `CCOCCOc1cccc(CC(=O)N[C@@H]2CCC[C@H](Nc3nc(-c4c[nH]c5ncc(F)cc45)ncc3F)C2)c1` [Compound A273] stands 50 to 100 µM; under `CCOc1ccccc1OCCCc1ccnc(C(=O)N[C@@H]2CCC[C@H](Nc3nc(-c4c[nH]c5ncc(F)cc45)ncc3F)C2)c1` [Compound A29], above 100 µM; under `CN(CCOCCOCCOCCO)C(=O)N[C@@H]1CCC[C@H](Nc2nc(-c3c[nH]c4ncc(F)cc34)ncc2F)C1` [Compound A169], 50 to 100 µM.
Next, `CCOCCCCCCCCN(C)C(=O)N[C@H]1CCC[C@@H](Nc2nc(-c3c[nH]c4ncc(F)cc34)ncc2F)C1` [Compound A211]: above 100 µM; `COCCOCc1ccnc(C(=O)N[C@@H]2CCC[C@H](Nc3nc(-c4c[nH]c5ncc(F)cc45)ncc3F)C2)c1` [Compound A45]: 25 to 50 µM; `O=C(N[C@@H]1CCC[C@H](Nc2nc(-c3c[nH]c4ncc(F)cc34)ncc2F)C1)c1cc(-c2ccc(F)cc2)ccn1` [Compound A60]: 5 to 25 µM.
`CC(NC(=O)OCc1ccnc(C(=O)N[C@H]2CCC[C@@H](Nc3nc(-c4c[nH]c5ncc(F)cc45)ncc3F)C2)c1)c1ccccc1F` (stereo partly drawn) [Compound A143]: the concentration giving a half-maximal response (EC50) is above 100 µM.
Next, `CC(NC(=O)OCc1ccnc(C(=O)N[C@H]2CCC[C@@H](Nc3nc(-c4c[nH]c5ncc(F)cc45)ncc3F)C2)c1)c1ccccn1` (stereo partly drawn) [Compound A136]: 5 to 25 µM; `CCOCCOCCCc1ccnc(C(=O)N[C@H]2CCC[C@@H](Nc3nc(-c4c[nH]c5ncc(F)cc45)ncc3F)C2)c1` [Compound A24]: 50 to 100 µM.
Under `CCCCCOCCOCC(=O)N[C@H]1CCC[C@@H](Nc2nc(-c3c[nH]c4ncc(F)cc34)ncc2F)C1` [Compound A277] stands above 100 µM; under `CN(CCOCCOCCOCCC(=O)O)C(=O)N[C@H]1CCC[C@@H](Nc2nc(-c3c[nH]c4ncc(F)cc34)ncc2F)C1` [Compound A171], 25 to 50 µM; under `CCOCc1cccc(COCC(=O)N[C@@H]2CCC[C@H](Nc3nc(-c4c[nH]c5ncc(F)cc45)ncc3F)C2)c1` [Compound A275], above 100 µM.
Next, `COc1ccc(CNC(=O)OCc2ccnc(C(=O)N[C@H]3CCC[C@@H](Nc4nc(-c5c[nH]c6ncc(F)cc56)ncc4F)C3)c2)cc1OC` [Compound A126]: above 100 µM.
The molecule `CCCCc1ccc(C(=O)N[C@@H]2CCC[C@H](Nc3nc(-c4c[nH]c5ncc(F)cc45)ncc3F)C2)nc1` [Compound A58] returned a half-maximal effective concentration (EC50) of 50 to 100 µM.
Turning to `CCOCc1cccc(COCCN(C)C(=O)N[C@@H]2CCC[C@H](Nc3nc(-c4c[nH]c5ncc(F)cc45)ncc3F)C2)c1` [Compound A184], the EC50 was above 100 µM.
